Results: US10457707B2, “Substituted urea depsipeptide analogs as activators of the CLPP endopeptidase” (priority 2015, dated 2019)
≈ marks a conversion by molar mass, not a printed value. Like-named read-outs stand apart in the source and are kept apart here. *1 amine or outer side, *2 acyl side, *3 side chain or, on linkers, in order; H or OH if unused. Where a SMILES comes first, the peptide text is derived from it. Bridges are numbered along the chain shown (N, C = ends). [ ]: non-standard residue; d: D form. The star is where a group is joined. ξ: configuration not given here. Piperazine(2S-CO,4-Me) = CN1CCN[C@H](C(=O)O)C1; Phe(3,5-F2) = N[C@@H](Cc1cc(F)cc(F)c1)C(=O)O; NH(1-Me-indolin-5-yl) = CN1CCc2cc(N*)ccc21; NH(4-OCF3-phenyl) = FC(F)(F)Oc1ccc(N*)cc1; Morpholine(3S-CO) = O=C(O)[C@@H]1COCCN1; Pro(4S-Me) = C[C@@H]1CN[C@H](C(=O)O)C1; NH(4-Cl-2-F-phenyl) = Fc1cc(Cl)ccc1N*; Pro(4R-Me) = C[C@H]1CN[C@H](C(=O)O)C1; NMeaThr = CN[C@H](C(=O)O)[C@H](C)O; Hyp = O=C(O)[C@@H]1C[C@@H](O)CN1; NH(4-Et-phenyl) = CCc1ccc(N*)cc1; NH(4-Me-phenyl) = Cc1ccc(N*)cc1; ξNMeThr = CNC(C(=O)O)[C@@H](C)O; aThr = C[C@H](O)[C@H](N)C(=O)O; NMeA = CN[C@@H](C)C(=O)O; CO = O=C([*:1])[*:2]

Legend:
Assay type in all cases: cell-based
[1] = system: Streptococcus pneumoniae, R6; experiment: Minimal inhibitory concentration assay; conditions: read-out: Minimal Inhibitory Concentrations S. pneumoniae R6
In short: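 Microbroth dilution with two-fold serial compound dilutions in broth, incubated aerobically overnight at 37° C. MIC taken as the lowest concentration preventing bacterial growth.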

[2] = system: Enterococcus faecalis, ATCC 33186; experiment: Minimal inhibitory concentration assay (microbroth dilution)
In short: (§1)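 MIC is the lowest concentration stopping visible growth after overnight aerobic culture at 37 °C, per CLSI microbroth dilution (about 10^5 cfu/mL; two-fold series, top final 200 μM). ClpP-inactivated S. aureus USA 300 tested alongside parent strain to probe ClpP-mediated killing.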

[3] = Cytotoxicity assay (CellTiter-Glo cell viability, 72 hours); conditions: African green monkey
In short: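 Viability measured by CellTiter-Glo luminescence after 72-hour compound exposure (serial dilutions, DMSO control) of Vero monolayers seeded at 5000 cells/well in 10% FBS DMEM. IC50 values are the range of two biologically independent experiments, each run in duplicate.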

[4] = system: Staphylococcus aureus, USA 300; experiment: Minimal inhibitory concentration assay; conditions: USA300, read-out: Minimal Inhibitory Concentrations S. aureus USA 300
In short: as §1

[5] = system: Staphylococcus aureus, USA 300 wherein ClpP is inactivated; experiment: Minimal inhibitory concentration assay
In short: as §1

[6] = Enterococcus faecalis, ATCC33186; read-out: Minimal Inhibitory Concentrations E. faecalis ATCC 33186
[7] = Enterococcus faecalis, ATCC33186, read-out: Minimal Inhibitory Concentrations E. faecalis ATCC 33186
[8] = Vero cells, 72 hours, growth inhibition, read-out: Cytotoxicity IC50

Row | SMILES | MIC [1] [µM] | MIC [2, 6] [µM] | IC50 at 72 h [3] [µM] | MIC [4] [µM] | Minimal Inhibitory Concentrations S. aureus USA 300 ΔClpP [5] [µM] | MIC [2, 7] [µM] | IC50 at 72 h [3, 8] [µM]
1 | C[C@@H]1C[C@H]2C(=O)O[C@@H](C)[C@H](NC(=O)[C@H](Cc3cc(F)cc(F)c3)NC(=O)Nc3ccc(Cl)cc3F)C(=O)N3CCC[C@H]3C(=O)N3CCOC[C@H]3C(=O)N[C@@H](C)C(=O)N2C1 [Compound 314, (S)-2-(3-(4-chloro-2-fluorophenyl)ureido)-3-(3,5-difluorophenyl)-N-((6aS,12S,13S,15aS,17R,21S,23aS)-13,17,21-trimethyl-6,11,15,20,23-pentaoxooctadecahydro-6H,11H,15H-[1,4]oxazino[3,4-i]dipyrrolo[2,1-c:2′,1′-l][1]oxa[4,7,10,13]tetraazacyclo-hexadecin-12-yl)propanamide] ({NH(4-Cl-2-F-phenyl)-CO}-[Phe(3,5-F2)][aThr]P[Morpholine(3S-CO)]A[Pro(4R-Me)]; ester 2-C) | < 0.02 | 0.039 (≈ 0.0331 µg/mL) | 2.39 ± 0.8 | < 0.02 | >20 | – | –
2 | C[C@@H]1C[C@H]2C(=O)OC[C@H](NC(=O)[C@H](Cc3cc(F)cc(F)c3)NC(=O)Nc3ccc(Cl)cc3F)C(=O)N3CCC[C@H]3C(=O)N3CCN(C)C[C@H]3C(=O)N[C@@H](C)C(=O)N2C1 [Compound 330, (S)-2-(3-(4-chloro-2-fluorophenyl)ureido)-3-(3,5-difluorophenyl)-N-((6aS,12S,15aS,17R,21S,23aS)-2,17,21-trimethyl-6,11,15,20,23-pentaoxooctadecahydro-2H,6H,11H,15H-pyrazino[2,1-i]dipyrrolo[2,1-c:2′,1′-l][1]oxa[4,7,10,13]tetraazacyclohexadecin-12-yl)propanamide] ({NH(4-Cl-2-F-phenyl)-CO}-[Phe(3,5-F2)]SP[Piperazine(2S-CO,4-Me)]A[Pro(4R-Me)]; ester 2-C) | 0.039 (≈ 0.033 µg/mL) | < 0.02 | > 50 | 0.156 (≈ 0.132 µg/mL) | >20 | – | –
3 | C[C@@H]1C[C@H]2C(=O)O[C@@H](C)[C@H](NC(=O)[C@H](Cc3cc(F)cc(F)c3)NC(=O)Nc3ccc4c(c3)CCN4C)C(=O)N3CCC[C@H]3C(=O)N(C)C([C@@H](C)O)C(=O)N[C@@H](C)C(=O)N2C1 (stereo partly drawn) [Compound 311, (S)-3-(3,5-difluorophenyl)-N-((2R,6S,9R,11aS,17S,18S,20aS)-9-((R)-1-hydroxyethyl)-2,6,10,18-tetramethyl-5,8,11,16,20-pentaoxohexadecahydro-1H,5H,16H-dipyrrolo[2,1-c:2′,1′-l][1]oxa[4,7,10,13]tetraazacyclohexadecin-17-yl)-2-(3-(1-methylindolin-5-yl)ureido)propanamide] ({NH(1-Me-indolin-5-yl)-CO}-[Phe(3,5-F2)][aThr]P[ξNMeThr]A[Pro(4R-Me)]; ester 2-C) | 0.078 (≈ 0.0665 µg/mL) | – | – | 0.156 (≈ 0.133 µg/mL) | >20 | 0.039 (≈ 0.0333 µg/mL) | 14.3 ± 0.3
4 | Cc1ccc(NC(=O)N[C@@H](Cc2cc(F)cc(F)c2)C(=O)N[C@@H]2C(=O)N3C[C@H](O)C[C@H]3C(=O)N(C)[C@@H](C)C(=O)N[C@@H](C)C(=O)N3C[C@@H](C)C[C@H]3C(=O)O[C@H]2C)cc1 [Compound 214, (S)-3-(3,5-difluorophenyl)-N-((2S,6S,9S,11aS,13R,17S,18S,20aS)-13-hydroxy-2,6,9,10,18-pentamethyl-5,8,11,16,20-pentaoxohexadecahydro-1H,5H,16H-dipyrrolo[2,1-c:2′,1′-l][1]oxa[4,7,10,13]tetraazacyclohexadecin-17-yl)-2-(3-(p-tolyl)ureido)propanamide] ({NH(4-Me-phenyl)-CO}-[Phe(3,5-F2)][aThr][Hyp][NMeA]A[Pro(4S-Me)]; ester 2-C) | 0.195 (≈ 0.156 µg/mL) | – | – | 1.56 (≈ 1.24 µg/mL) | >200 | 0.195 (≈ 0.156 µg/mL) | > 100
5 | Cc1ccc(NC(=O)N[C@@H](Cc2cc(F)cc(F)c2)C(=O)N[C@@H]2C(=O)N3CCC[C@H]3C(=O)N(C)[C@@H]([C@H](C)O)C(=O)N[C@@H](C)C(=O)N3C[C@@H](C)C[C@H]3C(=O)O[C@H]2C)cc1 [Compound 202, (S)-3-(3,5-difluorophenyl)-N-((2S,6S,9S,11aS,17S,18S,20aS)-9-((S)-1-hydroxyethyl)-2,6,10,18-tetramethyl-5,8,11,16,20-pentaoxohexadecahydro-1H,5H,16H-dipyrrolo[2,1-c:2′,1′-L][1]oxa[4,7,10,13]tetraazacyclohexadecin-17-yl)-2-(3-(p-tolyl)ureido)propanamide] ({NH(4-Me-phenyl)-CO}-[Phe(3,5-F2)][aThr]P[NMeaThr]A[Pro(4S-Me)]; ester 2-C) | 0.049 (≈ 0.0398 µg/mL) | – | – | 0.195 (≈ 0.158 µg/mL) | 200 | 0.049 (≈ 0.0398 µg/mL) | 55.7 ± 3.6
6 | C[C@@H]1C[C@H]2C(=O)O[C@@H](C)[C@H](NC(=O)[C@H](Cc3cc(F)cc(F)c3)NC(=O)Nc3ccc4c(c3)CCN4C)C(=O)N3C[C@H](O)C[C@H]3C(=O)N3CCOC[C@H]3C(=O)N[C@@H](C)C(=O)N2C1 [Compound 315, (S)-3-(3,5-difluorophenyl)-N-((6aS,8R,12S,13S,15aS,17R,21S,23aS)-8-hydroxy-13,17,21-trimethyl-6,11,15,20,23-pentaoxooctadecahydro-6H,11H,15H-[1,4]oxazino[3,4-i]dipyrrolo[2,1-c:2′,1′-l][1]oxa[4,7,10,13]tetraazacyclohexadecin-12-yl)-2-(3-(1-methylindolin-5-yl)ureido)propanamide] ({NH(1-Me-indolin-5-yl)-CO}-[Phe(3,5-F2)][aThr][Hyp][Morpholine(3S-CO)]A[Pro(4R-Me)]; ester 2-C) | 0.313 (≈ 0.271 µg/mL) | – | – | 10 (≈ 8.67 µg/mL) | >20 | 0.625 (≈ 0.542 µg/mL) | > 100
7 | C[C@@H]1C[C@H]2C(=O)O[C@@H](C)[C@H](NC(=O)[C@H](Cc3cc(F)cc(F)c3)NC(=O)Nc3ccc4c(c3)CCN4C)C(=O)N3CCC[C@H]3C(=O)N3CCOC[C@H]3C(=O)N[C@@H](C)C(=O)N2C1 [Compound 312, (S)-3-(3,5-difluorophenyl)-2-(3-(1-methylindolin-5-yl)ureido)-N-((6aS,12S,13S,15aS,17R,21S,23aS)-13,17,21-trimethyl-6,11,15,20,23-pentaoxooctadecahydro-6H,11H,15H-[1,4]oxazino[3,4-i]dipyrrolo[2,1-c:2′,1′-l][1]oxa[4,7,10,13]tetraazacyclo-hexadecin-12-yl)propanamide] ({NH(1-Me-indolin-5-yl)-CO}-[Phe(3,5-F2)][aThr]P[Morpholine(3S-CO)]A[Pro(4R-Me)]; ester 2-C) | 0.078 (≈ 0.0664 µg/mL) | – | – | 0.156 (≈ 0.133 µg/mL) | >20 | 0.039 (≈ 0.0332 µg/mL) | 2.87
8 | C[C@@H]1C[C@H]2C(=O)O[C@@H](C)[C@H](NC(=O)[C@H](Cc3cc(F)cc(F)c3)NC(=O)Nc3ccc(Cl)cc3F)C(=O)N3CCC[C@H]3C(=O)N(C)C([C@@H](C)O)C(=O)N[C@@H](C)C(=O)N2C1 (stereo partly drawn) [Compound 313, (S)-2-(3-(4-chloro-2-fluorophenyl)ureido)-3-(3,5-difluorophenyl)-N-((2R,6S,9R,11aS,17S,18S,20aS)-9-((R)-1-hydroxyethyl)-2,6,10,18-tetramethyl-5,8,11,16,20-pentaoxohexadecahydro-1H,5H,16H-dipyrrolo[2,1-c:2′,1′-l][1]oxa[4,7,10,13]tetraazacyclohexadecin-17-yl)propanamide] ({NH(4-Cl-2-F-phenyl)-CO}-[Phe(3,5-F2)][aThr]P[ξNMeThr]A[Pro(4R-Me)]; ester 2-C) | < 0.02 | 0.039 (≈ 0.0332 µg/mL) | 13.5 ± 3.9 | < 0.02 | >20 | – | –
9 | C[C@H]1C[C@H]2C(=O)O[C@@H](C)[C@H](NC(=O)[C@H](Cc3cc(F)cc(F)c3)NC(=O)Nc3ccc(OC(F)(F)F)cc3)C(=O)N3CCC[C@H]3C(=O)N(C)[C@@H]([C@H](C)O)C(=O)N[C@@H](C)C(=O)N2C1 [Compound 203, (S)-3-(3,5-difluorophenyl)-N-((2S,6S,9S,11aS,17S,18S,20aS)-9-((S)-1-hydroxyethyl)-2,6,10,18-tetramethyl-5,8,11,16,20-pentaoxohexadecahydro-1H,5H,16H-dipyrrolo[2,1-c:2′,1′-l][1]oxa[4,7,10,13]tetraazacyclohexadecin-17-yl)-2-(3-(4-(trifluoromethoxy)phenyl)ureido)propanamide] ({NH(4-OCF3-phenyl)-CO}-[Phe(3,5-F2)][aThr]P[NMeaThr]A[Pro(4S-Me)]; ester 2-C) | 0.024 (≈ 0.0212 µg/mL) | 0.781 (≈ 0.689 µg/mL) | 25.4 ± 1.8 | 0.098 (≈ 0.0864 µg/mL) | 50 | – | –
10 | CCc1ccc(NC(=O)N[C@@H](Cc2cc(F)cc(F)c2)C(=O)N[C@@H]2C(=O)N3CCC[C@H]3C(=O)N(C)[C@@H]([C@H](C)O)C(=O)N[C@@H](C)C(=O)N3C[C@@H](C)C[C@H]3C(=O)O[C@H]2C)cc1 [Compound 204, (S)-3-(3,5-difluorophenyl)-2-(3-(4-ethylphenyl)ureido)-N-((2S,6S,9S,11aS,17S,18S,20aS)-9-((S)-1-hydroxyethyl)-2,6,10,18-tetramethyl-5,8,11,16,20-pentaoxohexadecahydro-1H,5H,16H-dipyrrolo[2,1-c:2′,1′-l][1]oxa[4,7,10,13]tetraazacyclohexadecin-17-yl)propanamide] ({NH(4-Et-phenyl)-CO}-[Phe(3,5-F2)][aThr]P[NMeaThr]A[Pro(4S-Me)]; ester 2-C) | 0.024 (≈ 0.0198 µg/mL) | 0.195 (≈ 0.161 µg/mL) | 33.8 ± 1.6 | 0.098 (≈ 0.0809 µg/mL) | 100 | – | –
